{
  "source": "paper PMC8373216",
  "about": "“Development and Preclinical Evaluation of New Inhaled Lipoglycopeptides for the Treatment of Persistent Pulmonary Methicillin-Resistant Staphylococcus aureus Infections” (Antimicrobial Agents and Chemotherapy, 2021)",
  "key": {"Streptococcus oralis": {"test_system": "Streptococcus oralis", "test": "Expanded panel broth microdilution MIC", "assay_type": "cell-based"}, "[1]": {"test_system": "MRSA (ATCC BAA 1556; USA300)", "test": "Acute pulmonary MRSA infection in neutropenic rats, nebulized nose-only inhalation", "assay_type": "in vivo, Staphylococcus aureus", "conditions": "inhaled at 24 and 32 h postinfection, lungs at 48 h, 49.8 mg/kg delivered", "experimental": "Rats were rendered neutropenic with intraperitoneal (i.p.) cyclophosphamide on day −4 (150 mg/kg) and day −1 (100 mg/kg) relative to the challenge. On day 0 at 0 h, rats were challenged with MRSA via intranasal instillation at a target titer of 8.0 to 8.3 log10 CFU. At 24 and 32 h postchallenge, rats were loaded into a 12-port inhalation dosing tower, where they received nebulized drug or vehicle control treatments by nose-only inhalation. Animals were euthanized at 48 h postinfection for enumeration of lung MRSA titer. MRSA lung titer of test article treatments versus control is plotted for three separate experiments. […] Statistics are based on the Kolmogorov-Smirnov test for drug treatment versus control (RV94, P = 0.01). LOD = 2.1 log10 CFU/lungset.\nMale Sprague Dawley rats (Envigo, Indianapolis, IN) weighing between 225 and 250 g were used in these studies. Rats were housed and acclimated to the study facility as described in the PK methods section. Rats were rendered neutropenic through a series of intraperitoneal cyclophosphamide (Sigma-Aldrich) injections on day −4 (150 mg/kg) and day −1 (100 mg/kg) relative to the challenge. On day 0 at 0 h, rats were challenged with MRSA ATCC BAA 1556 via intranasal instillation at a target titer of 8.0 to 8.3 log10 CFU using optical density and back-counting inoculum CFU. To prepare the inoculum, a frozen aliquot of the organism stored at −80°C was thawed, transferred into TSB, and incubated at 37°C while shaking for 16 h. Cultures were then centrifuged at 2,000 × g for 5 min, and the resulting pellet was resuspended in PBS and equilibrated. For the challenge procedure, rats were first anesthetized through use of 2 to 5% isoflurane in 100% oxygen, then restrained with a scruff grip and a total of 200 μl of inoculum was quickly introduced to one nare. The rat was held in a vertical position until the challenge was fully inhaled. Rats were monitored following challenge to ensure that normal respiration was achieved and then returned to their cage. […] At necropsy, whole lungs were aseptically removed and lung weights were recorded. […]"}, "Clostridioides difficile": {"test_system": "Clostridioides difficile", "test": "Expanded panel broth microdilution MIC", "assay_type": "cell-based"}, "[2]": {"test_system": "Peptostreptococcus anaerobius", "test": "Expanded panel broth microdilution MIC", "assay_type": "cell-based"}, "[3]": {"test_system": "MRSA ATCC BAA 1556 (USA300) biofilm", "test": "Static MRSA biofilm killing, plastic microtiter plate, MEM"}, "Streptococcus agalactiae": {"test_system": "Streptococcus agalactiae", "test": "Expanded panel broth microdilution MIC/MBC", "assay_type": "cell-based"}, "Enterococcus faecium": {"test_system": "Enterococcus faecium", "test": "Expanded panel broth microdilution MIC/MBC", "assay_type": "cell-based", "conditions": "for MIC: Enterococcus faecium"}, "[4]": {"test_system": "Staphylococcus lugdunensis", "test": "Expanded panel broth microdilution MIC", "assay_type": "cell-based"}, "[5]": {"test_system": "MRSA ATCC BAA 1556 (USA300)", "test": "In-house broth microdilution MIC screening", "assay_type": "cell-based, Staphylococcus aureus", "conditions": "Staphylococcus aureus, read-out: MIC Value, MRSA ATCC BAA 1556"}, "[6]": {"test_system": "Streptococcus constellatus", "test": "Expanded panel broth microdilution MIC", "assay_type": "cell-based"}, "[7]": {"test": "Single-dose nebulized nose-only inhalation PK in healthy rats", "assay_type": "in vivo, rat", "conditions": "single nebulized nose-only inhaled dose, healthy rats", "experimental": "Rats were acclimated in the study facility for approximately 1 week prior to study start. Ten or eleven rats per cohort were loaded into the chamber at the time of dosing. […] An additional airflow set to 6 liters/min was admixed with the nebulizer output to further direct the test articles to the animals. […] The remaining port on the chamber was fit with an aerosol sampling filter for dose determination over a 5 min sampling period. The average dose delivered to the nose of each animal was calculated using an algorithm that was previously described ([49]). […] Animals were euthanized for collection of whole lungs and plasma at time points ranging from immediate postdose (IPD; approximately 30 min after dosing for nebulization) to 168 h postdose (7 days). Drugs were extracted from tissues using customized protein precipitation methods with an appropriate internal standard for each compound and transferred for analysis by LC-MS/MS (Sciex API4500 or API6500+ mass spectrometer [Sciex, Framingham, MA]). GraphPad Prism (La Jolla, CA) was used for statistical analyses and data plotting. […] The data were applied to a noncompartmental analysis after extravascular dosing input and fit to a linear up/log down model. Statistical analysis of in vitro intracellular and biofilm activity was based on a two-way ANOVA with a Bonferroni post test. In vivo statistical analysis was based on the Kolmogorov-Smirnov test."}, "[8]": {"test_system": "Staphylococcus haemolyticus", "test": "Expanded panel broth microdilution MIC", "assay_type": "cell-based"}, "Clostridium. perfringens": {"test_system": "Clostridium. perfringens", "test": "microbe, parasite or virus in culture", "assay_type": "cell-based"}},
  "note": "Read-outs that look alike come from different tables or passages of the source.",
  "data": [
    {"smiles": "CN[C@H](CC(C)C)C(=O)N[C@H]1C(=O)N[C@@H](CC(N)=O)C(=O)N[C@H]2C(=O)N[C@H]3C(=O)N[C@H](C(=O)N[C@H](C(=O)O)c4cc(O)cc(O)c4-c4cc3ccc4O)[C@H](O)c3ccc(c(Cl)c3)Oc3cc2cc(c3O[C@@H]2O[C@H](CO)[C@@H](O)[C@H](O)[C@H]2O[C@H]2C[C@](C)(N)[C@H](O)[C@H](C)O2)Oc2ccc(cc2Cl)[C@H]1O", "note": "[Vancomycin, vancomycin]", "values": [
      {"measurement": "MIC", "setting": "Streptococcus oralis; S. oralis MGS, 1 isolate", "result": 0.5, "unit": "µg/mL"},
      {"measurement": "MIC", "setting": "Streptococcus oralis; Streptococcus oralis", "result": 0.5, "unit": "µg/mL"},
      {"measurement": "Average increase in lung MRSA titer versus inhaled vehicle control", "setting": "[1]", "result": 0.1, "unit": "log10 CFU"},
      {"measurement": "MIC", "setting": "Clostridioides difficile; ATCCBAA1805, C. difficile ATCC BAA-1805, ribo 027", "result": 0.5, "unit": "µg/mL"},
      {"measurement": "MIC", "setting": "Clostridioides difficile; ATCCBAA1870, C. difficile ATCC BAA-1870, NAP1;ribo 027", "result": 1, "unit": "µg/mL"},
      {"measurement": "MIC", "setting": "Clostridioides difficile; C. difficile ATTC 700057, toxAB-", "result": 0.25, "unit": "µg/mL"},
      {"measurement": "MIC", "setting": "Clostridioides difficile; C. difficile NAP1;ribo 027, 1 isolate", "result": 1, "unit": "µg/mL"},
      {"measurement": "MIC", "setting": "Clostridioides difficile; C. difficile ribo 027, 1 isolate", "result": 0.5, "unit": "µg/mL"},
      {"measurement": "MIC", "setting": "Clostridioides difficile; C. difficile toxAB-, 1 isolate", "result": 0.25, "unit": "µg/mL"},
      {"measurement": "MIC", "setting": "[2]", "result": 0.12, "unit": "µg/mL"},
      {"measurement": "MIC", "setting": "[2]; ATCC27337", "result": 0.12, "unit": "µg/mL"},
      {"measurement": "Reduction in MRSA biofilm titer", "setting": "[3]; >20 μg/ml dose", "result": 3, "unit": "log10 CFU/ml"},
      {"measurement": "Reduction in MRSA biofilm titer versus control", "setting": "[3]; doses 1 to 10 μg/ml", "result": "approximately 2 log10 CFU/ml"},
      {"measurement": "Concentrations with statistically significant reduction versus control biofilm", "setting": "[3]; two-way ANOVA, Bonferroni", "result": "≥ 22", "unit": "µg/mL"},
      {"measurement": "MIC", "setting": "Streptococcus agalactiae; S. agalactiae MMX 4115, ermR", "result": 0.25, "unit": "µg/mL"},
      {"measurement": "MIC", "setting": "Streptococcus agalactiae; S. agalactiae ermR, 1 isolate", "result": 0.25, "unit": "µg/mL"},
      {"measurement": "MIC:MBC", "setting": "Streptococcus agalactiae; S. agalactiae, MBC on one organism", "result": 4},
      {"measurement": "MIC", "setting": "Streptococcus agalactiae; Streptococcus agalactiae", "result": 0.25, "unit": "µg/mL"},
      {"measurement": "MIC", "setting": "Streptococcus agalactiae; Streptococcus agalactiae, ATCC13813", "result": 0.25, "unit": "µg/mL"},
      {"measurement": "MIC", "setting": "Streptococcus agalactiae; Streptococcus agalactiae, read-out: MIC (median)", "result": 0.25, "unit": "µg/mL"},
      {"measurement": "MIC:MBC", "setting": "Enterococcus faecium; E. faecium VanB VRE", "result": ">2"},
      {"measurement": "MIC", "setting": "Enterococcus faecium; E. faecium MMX 4204, VSE", "result": 0.5, "unit": "µg/mL"},
      {"measurement": "MIC", "setting": "Enterococcus faecium; E. faecium VSE, 1 isolate", "result": 0.5, "unit": "µg/mL"},
      {"measurement": "MIC", "setting": "Enterococcus faecium; VRE, E. faecium MMX 173, VanB VRE", "result": 64, "unit": "µg/mL"},
      {"measurement": "MIC", "setting": "Enterococcus faecium; VRE, E. faecium MMX 851, VanA VRE", "result": 128, "unit": "µg/mL"},
      {"measurement": "MIC", "setting": "Enterococcus faecium; VRE, E. faecium VanA VRE, 1 isolate", "result": 128, "unit": "µg/mL"},
      {"measurement": "MIC", "setting": "Enterococcus faecium; VRE, E. faecium VanB VRE, 1 isolate", "result": 64, "unit": "µg/mL"},
      {"measurement": "MIC", "setting": "[4]; S. lugdunensis, 1 isolate", "result": 0.25, "unit": "µg/mL"},
      {"measurement": "MIC", "setting": "[4]; Staphylococcus lugdunensis", "result": 0.25, "unit": "µg/mL"},
      {"measurement": "MIC", "setting": "[5]", "result": 1, "unit": "µg/mL"},
      {"measurement": "MIC", "setting": "[6]; S. constellatus AGS, 1 isolate", "result": 0.25, "unit": "µg/mL"},
      {"measurement": "MIC", "setting": "[6]; Streptococcus constellatus", "result": 0.25, "unit": "µg/mL"},
      {"measurement": "half-life", "setting": "[7]; male, Sprague Dawley, rat, in vivo, inhaled or intranasal, noncompartmental analysis, read-out: Lung t1/2 (converted)", "result": 23, "unit": "h"},
      {"measurement": "Kp", "setting": "[7]; male, Sprague Dawley, rat, in vivo, inhaled or intranasal, read-out: Lung: Plasma Cmax ratio", "result": 4},
      {"measurement": "Cmax", "setting": "[7]; male, Sprague Dawley, rat, in vivo, inhaled or intranasal, read-out: Plasma Cmax", "result": 8000, "unit": "ng/mL"},
      {"measurement": "Pulmonary dose", "setting": "[7]; measured directly in lung tissue", "result": 0.20, "unit": "mg/kg"},
      {"measurement": "Lung AUC0-∞", "setting": "[7]", "result": 671, "unit": "µg·h/g"},
      {"measurement": "Lung Cmax", "setting": "[7]", "result": 31, "unit": "µg/g"},
      {"measurement": "MIC", "setting": "[8]", "result": 1, "unit": "µg/mL"},
      {"measurement": "MIC", "setting": "[8]; ATCC29970", "result": 1, "unit": "µg/mL"},
      {"measurement": "MIC", "setting": "Clostridium. perfringens", "result": 0.25, "unit": "µg/mL"},
      {"measurement": "MIC", "setting": "Clostridium. perfringens; ATCC13124, read-out: MIC", "result": 0.25, "unit": "µg/mL"}
    ]}
  ]
}
